Test results reported in US6486198B1, “Compounds and methods for the treatment of post traumatic stress disorder” (priority 1999, dated 2002).

What was measured:
kindled epilepsy = conditions: in vivo; cited from earlier work
[1] = tested on: patients meeting DSM-IV criteria for chronic PTSD; experiment: Discontinuation, side effects and tolerability in the PTSD patient study; assay type: in vivo, human
Source text: Thirty five (35) patients meeting DSM-IV criteria for chronic post-traumatic stress disorder (PTSD) were selected for a study of the effects of topiramate administration. Of these, […] had non-hallucinatory PTSD and 6 hallucinatory PTSD. The group with hallucinatory PTSD experienced auditory and/or visual hallucinations containing content specifically associated with identified traumatic events. Whether these were PTSD “flashbacks” or psychotic experiences were at times difficult to ascertain due to fluctuations in reality testing the hallucinations. For this reason, prior to being screened for PTSD, some patients had received psychiatric diagnoses of psychotic disorders despite meeting full diagnostic criteria for PTSD.
Topiramate was added naturalistically to existing pharmacotherapy (see Table 1 for concomitant medications at start of trial), starting at 25 mglday and increasing whenever possible by 25 to 50 mg/day every 3 to 4 days to clinical response. Target symptoms were DSM-IV PTSD criterion B symptoms of nightmares (N =24) and intrusions (intrusive recollections/flashbacks, N=35) involving re-experiencing of traumas. Definitions of improvement, as assessed from patient self-report, included “partial response” as “definite reduction in intensity and frequency of nightmares or intrusions”, and “full response” as “complete cessation of nightmares and intrusions for a sustained period”. Following the seminal observations, in order to systematically identify responsive symptoms, the next 17 patients completed a self-report scale, the PTSD Checklist—Civilian Version (PCL-C)15, at baseline and at 4 weeks after starting topiramate. The patients were instructed to complete the PCL-C for experiences corresponding to traumas consistent with DSM-IV criterion A for PTSD. Paired ttest scores for the PCL-C were calculated with Jandel SigmaStat® v. 2.0.
Thirteen patients eventually discontinued treatment: 9 due to side effects (urticaria [N=1], eating cessation [N=2], ocular and limb paresthesias [N=1], severe headaches [N=1], overstimulation/panic [N=2], emergent suicidal ideation [N=1], and memory concerns [N=1]) and 4 for other reasons (patient choice [N=1], lack of relapse upon medication interruption [N=2], lack of efficacy [N=1]). Five of the discontinuers had experienced full symptom remission prior to discontinuation and 3 additional patients reported partial response.
Discontinuation due to medication-associated side effects, such as nausea and memory concerns, may have been due to the presence of other medications, to medication interactions, or to individual variation in time needed to accommodate to initial side effects. Subsequent to discontinuation of topiramate, the patient who experienced urticaria continued to complain of unrelated episodes of urticaria. […] When they occurred, side effects were easily managed by dosage reduction or a brief hiatus in administration.

## CC1(C)O[C@@H]2[C@@H](CO[C@@]3(COS(N)(=O)=O)OC(C)(C)O[C@@H]23)O1 [Topiramate, 2,3:4,5-bis-O-(1-methylethylidene)-β-D-fructopyranose sulfamate]
Kindled epilepsy
  Seizure block in animal model of kindled epilepsy: effectively block seizures
[1]; PTSD patients
  Safety in the study: posed no safety issues
[1]; PTSD population
  Tolerability: appeared well tolerated
[1]; of 35 patients
  Patients discontinued due to side effects: 9
  Patients who eventually discontinued treatment: Thirteen
[1]; of thirteen discontinuers
  Additional discontinuers reporting partial response: 3 patients
  Discontinuers with full symptom remission prior to discontinuation: Five
